How the values were obtained:
[1] = tested on: MDA-MB-231 cells; assay: Adhesion assay on fibronectin-coated wells; assay type: cell-based, human; details: Homo sapiens; MDA-MB-231, fibronectin
Procedure: Adhesion Assay. Quantitative cell adhesion assays were carried out in nontissue culture treated 96-well microtiter plates (Evergreen Scientific, Los Angeles, Calif.) which were coated with 15 μg/mL fibronectin (Sigma) for 1 h at room temperature. Fibronectin coated and uncoated control wells were blocked for 1 h with 3% heat denatured bovine serum albumin (BSA) at 37° C. Cells were split one day prior to the experiment to achieve a subconfluent culture. […] The wells were washed and the number of adherent cells was quantified by crystal violet staining at 570 nm.^19,20 The results were shown by means±SE.

[2] = In vivo PK study, plasma HPLC MS/MS; set-up: species or system mouse; details: mice
Procedure: Pharmacokinetics of the Leads in Rodents. A method to quantify IPR-69 in plasma was developed using HPLC-MS/MS (API 3200; Applied Biosystems). A 20 μL plasma sample was extracted with methyl tertiary butyl ether (MTBE) under neutral conditions (0.1 M phosphate buffer pH=7.4) using temazepam as the internal standard. The extract is evaporated, reconstituted with mobile phase and injected into the HPLC. The HPLC column is a C-8 50×4.6 mm 5-μm column and separation of UPR and temazepam occurred by a linear gradient mobile phase starting with acetonitrile:0.1% formic acid (10:90) and changing to 80:20. The m/z Q1 and Q3 settings on the API 3200 for UPR and temazepam are 418/297 and 301/255, respectively. The lower limit of quantification of IPR-69 is 1 ng/mL using 20 μL of plasma. A standard response curve of IPR-69 was created with concentrations that varied from 1 ng/mL to 1000 ng/mL using 300 ng/mL of temazepam for each sample. To determine drug concentrations of the lead inhibitors in the pharmacological models, the PK properties of the compounds in mice must be characterized. The PK of IPR-69 was determined in NOD/SCID mice following a single dose given PO. The study design used 3 mice per time point. Blood was collected at time intervals from 0 to 24 hours after dosing (8 time points), quantified by the procedure described above. Pharmacokinetic parameters for IPR-69 including area under the curve (AUC), area under the moment curve (AUMC), and t1/2 were estimated using non-compartmental methods with Excel®. The maximum plasma concentration (Cmax) and time of Cmax (tmax) were obtained from the data. The AUC from zero to infinity (AUC0-∞) was estimated from the AUC0-t (time zero to the last quantifiable concentration Clast) and the AUC from Clast to infinity, Clast/kel, where kel is the rate constant of elimination. The AUMC0-∞ was estimated by an analogous manner. The systemic clearance (Cl/F, where F=bioavailability) of IPR-69 was calculated from the dose and AUC0-∞. […]

[3] = target: CYP2C9 (Homo sapiens, UniProt P11712); assay: Fluorescence-based CYP2C9 inhibition assay; details: human
Procedure: CYP metabolism was measured using a fluorescence-based assay designed by Cohen et al.,^41 recently implemented by Invitrogen (Carlsbad, Calif.).

[4] = tested on: MDA-MB-231 cells; assay: Migration assay (Boyden chamber without Matrigel); assay type: cell-based; details: Homo sapiens
Procedure: Invasion and Migration Assays. These assays were performed using BD BioCoat Matrigel Invasion Chamber (Cat. 354480, BD Biosciences, Bedford, Mass.). The undersurface of the inserts was coated with 30 μg/mL of fibronectin (Sigma, F2006) in PBS at 4° C. overnight. The inserts were washed with PBS once. Then, 0.5 mL of serum-free medium was separately added to the upper and lower chambers to equilibrate the Matrigel invasion chambers at 37° C., 5% CO2 for 2 hours. After starvated with serumfree DMEM or 4 hours, subconfluent MDA-MB-231 cells were trypsinized and resuspended in 0.1% FBS DMEM. 5×10^4 cells in 500 μL of 0.1% FBS DMEM containing various compounds or 1.0% DMSO (as control) were added to the upper chambers. […] We incubated the invasion chambers for 3 hours at 37° C., 5% CO2. Non-invaded cells were removed from the upper chamber with a cotton swab. The invaded cells were fixed with 100% methanol and then stained with Hematoxylin Stain Harris Modified Method (Fisher, SH30-500D). The filters were washed with water 3 times. Filters were air dried and the invaded cells were counted in ten randomly selected microscopic fields (×200 magnification). The experiment was performed in triplicate per group and shown by mean±SE.

[5] = tested on: TMD-231 cells; assay: TMD-231 mammary fat pad xenograft, tumor growth and lung metastasis; assay type: in vivo
Text: Mouse Xenograft Studies. NOD/SCID mice were obtained from the on-site breeding colony maintained by the In Vivo Therapeutics Core at the Indiana University Simon Cancer Center (IUSM, Indianapolis, Ind.) and maintained in pathogen-free conditions within the laboratory animal resources center (LARC) at the Indiana University School of Medicine according to an approved protocol by the Institutional animal care and use committee (IACUC) committee.
For metastasis studies, m.f.p. tumors were allowed to grow to approximately 100 mm^3 mice. Mice were assigned to treatment group based on average tumor size/weight. Following a recovery period of two days, mice received treatment of investigational drug (n=15) or a PBS solvent control (n=15). After four weeks mice were euthanized, the lungs were resected, fixed in formalin solution, sectioned, and stained with hematoxylin and eosin (H&E) for analysis. […] Tumor volume were be calculated as Length*Width^2/2 in millimeters.
TMD-231 cells were inoculated into the mammary fat pad of female NOD/SCID mice. Dosing was initiated at day 18 post implantation. Animals were randomized and treated with vehicle or with IPR-69 by daily oral gavage at a dose of 150 mg/kg (n=11). Tumor volumes were determined by caliper measurements on a […], and calculated according to the formula (α2×β)/2, where α is the shorter and β is the longer of the two dimensions. Tumor volumes were determined by caliper measurements on a weekly basis. The study was conducted over a period of 68 days. […] Once the tumor volume reached 30 mm^3 to 50 mm^3, animals were randomized and treated with vehicle alone as control or 150 mg/kg IPR-69 three times a week for 10 weeks by oral gavage. Tumor volumes were determined by caliper measurements obtained weekly. Over the course of the study, several mice were sacrificed to determine whether breast tumor cells had metastasized to the lungs. At the end of the study, control and experimental animals were sacrificed and organs (lungs) were removed and evaluated for the presence of tumors. The number and size of metastasis in two to five fields per sample were calculated. […] Briefly, percentage of staining was categorized as “0” if there was no nuclear/cytoplasmic expression, “1” for up to 10% positive tumor nuclei/cells, “2” for 11-20% and until a maximum score of “10”. Intensity was scored as “1+,” “2+,” and “3+” for weak, moderate and strong staining respectively.

[6] = tested on: MMP-9; assay: Gelatin zymography of MDA-MB-231 conditioned medium; assay type: cell-based, human
Procedure: Gelatin Zymography. MDA-MB-231 cells were treated with different concentrations of uPAR compounds in serum free medium for 24 h, the conditioned medium were collected, concentrated by Amicon Ultra centrifugal filter units (Millipore, #UFC500324), proteins were normalized and electrophoresed on sodium dodecyl sulfate (SDS)-polyacrylamide gels (10%) containing 1 mg/mL gelatin. After electrophoresis, the gel was washed twice in 50 mM Tris-HCl (pH 7.6) containing 5 mM CaCl2 and 2.5% Triton X-100 for 30 minutes at room temperature and incubated in buffer that contained 50 mM Tris-HCl (pH 7.6), 200 mM NaCl, 10 mM CaCl2 at 37° C. for 36 h. Then, the gels were stained with 0.05% Coomassie brilliant blue (CBB) and destained with 30% methanol in 10% acetic acid. Areas of gelatinolytic degradation appeared as transparent bands on the blue stained background of the gel. Data were quantified using Image J.
To degrade collagen within the ECM, malignant cells unleash a series of extracelullar proteases known as matrix metalloproteinases (MMPs).

CYP2C9, sequence (P11712 whole entry): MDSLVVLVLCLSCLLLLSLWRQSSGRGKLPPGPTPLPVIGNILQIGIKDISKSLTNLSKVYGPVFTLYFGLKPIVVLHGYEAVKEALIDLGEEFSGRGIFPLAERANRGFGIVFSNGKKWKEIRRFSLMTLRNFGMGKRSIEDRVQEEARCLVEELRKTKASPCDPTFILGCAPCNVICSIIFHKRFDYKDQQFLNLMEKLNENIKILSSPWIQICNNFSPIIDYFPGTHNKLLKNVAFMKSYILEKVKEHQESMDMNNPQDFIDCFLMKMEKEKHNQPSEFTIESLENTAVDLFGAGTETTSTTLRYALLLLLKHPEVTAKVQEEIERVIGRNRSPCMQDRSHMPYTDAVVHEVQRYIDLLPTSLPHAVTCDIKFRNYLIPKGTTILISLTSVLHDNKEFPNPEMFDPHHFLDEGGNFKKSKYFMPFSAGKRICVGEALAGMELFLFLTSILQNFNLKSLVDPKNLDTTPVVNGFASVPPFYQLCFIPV

SMILES: Cc1cc(C)cc(NC(=O)c2cnn(-c3ccc(C(C)C)cc3)c2C2CCNCC2)c1 [IPR-69, N-(3,5-dimethylphenyl)-1-(4-isopropylphenyl)-5-(piperidin-4-yl)-1H-pyrazole-4-carboxamide]
- IC50 [1]: 45 µM
- half-life ([2]; NOD/SCID, mouse, plasma, estimated, single oral gavage of 50 mg/kg): ~2 h
- oral bioavailability [2]: orally bioavailable
- time of maximum level ([2]; single oral gavage of 50 mg/kg): approximately 5 hours
- inhibition of CYP2C9 [3]: little inhibition of CYP2C9
- IC50 [4]: 40 µM
- treated mice with metastatic lesions of score >2 ([5]; 150 mg/kg oral gavage): 3
- tumor volume at the end of the study ([5]; 150 mg/kg oral gavage, average, 68 days): 779 mm^3
- treated mice with signs of metastatic lesions in the lungs ([5]; 150 mg/kg oral gavage, n=11): 3 out of 11
- metastasis to the lungs ([5]; compared with untreated mice): less extensive metastasis to the lungs
- tolerability ([5]; doses as high as 150 mg/kg, mice): well tolerated
- MMP-9 activity in gelatin zymography [6]: some inhibition of MMP-9
- IC50 ([6]; estimated, read-out: IC50 for inhibition of MMP-9 activity): 25 µM
